Target: T1, human GIPR (Homo sapiens, UniProt P48546)
T1 construct: expressed in transfected cells; host or cells: HEK293
T1 sequence (P48546 22-466): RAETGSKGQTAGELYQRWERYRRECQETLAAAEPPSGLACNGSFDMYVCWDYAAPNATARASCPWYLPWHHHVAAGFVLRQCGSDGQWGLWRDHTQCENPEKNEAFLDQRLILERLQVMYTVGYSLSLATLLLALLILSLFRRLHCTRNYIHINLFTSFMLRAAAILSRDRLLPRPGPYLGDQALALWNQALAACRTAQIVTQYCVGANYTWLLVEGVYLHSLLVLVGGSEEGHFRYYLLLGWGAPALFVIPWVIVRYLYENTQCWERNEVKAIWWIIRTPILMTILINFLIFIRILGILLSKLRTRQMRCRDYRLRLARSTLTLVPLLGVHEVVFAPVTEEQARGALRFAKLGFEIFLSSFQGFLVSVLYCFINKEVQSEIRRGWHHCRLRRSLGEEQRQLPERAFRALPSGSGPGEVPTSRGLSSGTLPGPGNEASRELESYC
Experiment: GIPR Gαs [35S]GTPγS binding, GIPR-expressing membranes
Type: biochemical
Protocol: Fig. 4. […] (B) Ligand-induced GTPγS binding of Gαs was performed using the GIPR-expressing membranes. […] (C) Agonist-stimulated cAMP production was measured in human GIPR expressing HEK293 cells. […] (E) Ligand-induced GTPγS binding of Gαs was performed using the GLP-1R-expressing membranes. […] (F) Agonist-stimulated cAMP production was measured in human GLP-1R-expressing HEK293 cells. […] Data presented are representative of n ≥ 3 independent experiments. Summarized data are shown in SI Appendix, Table 2. log M; log Molar.
We note that the albumin-binding propensity of fatty acid-modified peptides can confound a pharmacological comparison of molecules, given the common use of albumin and serum as nonspecific blocking agents in biological assays. Therefore, to obviate this, entirely albumin-free assays supplemented with bovine casein or bacitracin were used to prevent nonspecific binding ([10]).
Functional potency (EC50)
and efficacy (% Top) of ligands to induce Gα s -GTPγS binding and cAMP accumulation in HEK293 cells expressing GIPR were determined. The equilibrium affinity (KD) of
ligands for the immobilized ectodomain of the GIPR were quantified by surface plasmon resonance. […]
SPR data were analyzed using T200 evaluation software (Cytiva). All data are presented as geometric means with SEM and n values
according to established practices. ND, not determined. NA, not applicable.

CC[C@H](C)[C@H](NC(=O)[C@H](CC(C)C)NC(=O)[C@H](Cc1c[nH]c2ccccc12)NC(=O)[C@H](CCC(N)=O)NC(=O)[C@@H](NC(=O)[C@H](Cc1ccccc1)NC(=O)[C@H](C)NC(=O)[C@H](CCCCN)NC(=O)[C@H](CCC(N)=O)NC(=O)[C@H](C)NC(=O)[C@@H](NC(=O)[C@H](CCCCN)NC(=O)[C@H](CC(=O)O)NC(=O)[C@H](CC(C)C)NC(=O)C(C)(C)NC(=O)[C@@H](NC(=O)[C@H](CO)NC(=O)[C@H](Cc1ccc(O)cc1)NC(=O)[C@H](CC(=O)O)NC(=O)[C@H](CO)NC(=O)[C@@H](NC(=O)[C@H](Cc1ccccc1)NC(=O)[C@@H](NC(=O)CNC(=O)[C@H](CCC(=O)O)NC(=O)C(C)(C)NC(=O)[C@@H](N)Cc1ccc(O)cc1)[C@@H](C)O)[C@@H](C)O)[C@@H](C)CC)[C@@H](C)CC)C(C)C)C(=O)N[C@@H](C)C(=O)NCC(=O)NCC(=O)N1CCC[C@H]1C(=O)N[C@@H](CO)C(=O)N[C@@H](CO)C(=O)NCC(=O)N[C@@H](C)C(=O)N1CCC[C@H]1C(=O)N1CCC[C@H]1C(=O)N1CCC[C@H]1C(=O)N[C@@H](CO)C(N)=O [Tzp∆C20]
EC50 (Gαs-GTPγS binding, GIPR-expressing membranes, albumin-free, geometric mean (SEM, n), read-out: GIPR GTPγS Recruitment EC50): 0.0733 nM
GIPR GTPγS Recruitment Top (efficacy (% Top), normalized to GIP(1-42), (SEM)): 91.0 (3.5) %

Reference: paper PMC9060465 (Proceedings of the National Academy of Sciences of the …, 2022)
